In US12448399B2, “Cereblon-based KRAS degrading PROTACs and uses related thereto” (Arvinas Operations, Inc., priority 2023, dated 2025) one finds DC50 and Dmax data, which are given here for 18 compounds.

The assay addresses T1, KRas-G12D (Homo sapiens, UniProt P01116, G12D).
T1 construct: insert the HiBiT tag onto the N-terminus of one or more of the endogenous KRas alleles; host or cells: AsPC-1 HiBiT-KRasG12D knock-in clone (one tagged allele, two untagged KRasG12D alleles)
Briefly: HiBiT Degradation Assay (G12D), AsPC-1 HiBiT-KRasG12D cells, 24 hr. The class given is cell-based. The following applies: for DC50: AsPC-1 cells; for Dmax: ASPC1, AsPC-1 cells, maximum degradation observed. The procedure: AsPC-1 (CRL-1682) cells were purchased from ATCC and are homozygous for the G12D mutation in KRas. AsPC-1 cells were cultured in GIBCO RPMI-1640 (ThermoFisher Scientific, catalog #61870-036, with Glutamax, no HEPES, no Na Pyruvate) supplemented with 10% FBS (ThermoFisher Scientific, catalog #2060357) and 1× Penicillin-Streptomycin (ThermoFisher Scientific, catalog #15140122, 10000 U/ml, 100×). For degradation assays, 384 well plates were used. Alamar blue was purchased from ThermoFisher Scientific (A50101) and used according to manufacturer instructions. The Nano-Glo® HiBiT Lytic Detection System and Nano-Glo® HiBiT Blotting System were purchased from Promega (#N3050 and #N2410) and used according to manufacturer instructions.
To create the AsPC-1 HiBiT-KRasG12D cell line, CRISPR-Cas9 was used to insert the HiBiT tag onto the N-terminus of one or more of the endogenous KRas alleles. See Schwinn, M. K. et al. (2018) CRISPR-mediated tagging of endogenous proteins with a luminescent peptide, ACS Chem. Biol. 13(2), 467-474. After knock-in of the tag, individual clones were isolated by single cell dilution and screened for HiBiT insertion by PCR. A clone was identified that contained the desired HiBiT-KRasG12D sequence at one allele while the remaining two KRasG12D alleles were untagged. This clone was used in further studies.
AsPC-1 HiBiT-KRasG12D cells were plated at 9000 or 15,000 cells/well in a 384 well plate (Corning #3770). Compounds of the present disclosure and positive controls were diluted in the appropriate cell media and applied to the plated cells resulting in a final concentration titration of 10 μM to […] in 0.5% DMSO. Gambogic acid was used as a positive control for cytotoxicity and titrated from 10 μM to 78 nM. All assays were performed in triplicate. Cells were treated with compounds for 24 hr at 37° C. in an incubator containing 5% CO2. Following treatment, alamar blue was used to determine if any compounds led to a loss in cell viability after 24 hr. The 10× alamar blue reagent was added to a final concentration of 1× as recommended by the manufacturer and cells were returned to the incubator for 4 hr. Plates were then allowed to equilibrate to RT and fluorescence was measured using a Perkin-Elmer EnVision. After completion of the fluorescence read, the liquid from each well was removed and the cells were washed with PBS. The Nano-Glo® HiBiT detection reagent was prepared according to the manufacturer's instructions and added to each well after the PBS wash was removed. Following incubation at room temperature for 45 min, the luminescence was read using the ultra-sensitive luminescence aperture on the Envision instrument.
Fluorescence values from the alamar blue treatment were normalized to the DMSO-only control for each compound titration. HiBiT luminescence was normalized to the DMSO-only control and the fractional HiBiT signal was plotted versus the log of the PROTAC concentration and fit to a 4-parameter dose-response model to obtain the concentration of the compound that leads to half maximal degradation (DC50) as well as the maximum degradation observed (Dmax, conventionally expressed as a percentage of control).

The structures appear in SMILES notation.

T1 sequence (P01116 1-188 isoform P01116-2 G12D): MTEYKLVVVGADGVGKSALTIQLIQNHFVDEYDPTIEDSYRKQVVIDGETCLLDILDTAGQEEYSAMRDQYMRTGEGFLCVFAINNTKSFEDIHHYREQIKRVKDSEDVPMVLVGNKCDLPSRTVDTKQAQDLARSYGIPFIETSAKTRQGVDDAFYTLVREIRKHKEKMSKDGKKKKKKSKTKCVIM

Usually DC50 stands for the midpoint of the concentration-degradation curve. A lower DC50 goes with degradation at low concentration. `CCc1cccc2cc(O)cc(-c3ncc4c(N5CC6CCC(C5)N6)nc(OCCN5CCC(CN6CCN(c7ccc8c(c7)C(=O)N(C7CCC(=O)NC7=O)C8=O)CC6)CC5)nc4c3F)c12` (stereo not drawn) [Compound 32]: the DC50 fell in the range of 250 to 1000 nM.

`CCc1cccc2cc(O)cc(-c3ncc4c(N5CC6CCC(C5)N6)nc(OCCN5CCN([C@H]6CC[C@H](Nc7ccc8c(c7)C(=O)N(C7CCC(=O)NC7=O)C8=O)CC6)CC5)nc4c3F)c12` (stereo partly drawn) [Compound 33] yielded a 50% degradation concentration (DC50) of 250 to 1000 nM. Same read-out and setting: the same measure for `CCc1cccc2cc(O)cc(-c3ncc4c(N5CC6CCC(C5)N6)nc(OCCN5CCC(c6ccc7c(c6)C(=O)N(C6CCC(=O)NC6=O)C7=O)CC5)nc4c3F)c12` (stereo not drawn) [Compound 34]: 250 to 1000 nM.

A word on the Dmax: it is the greatest extent of degradation seen. Low values mean a partial loss of target, high ones a fuller loss of target. `C#Cc1c(F)ccc2cc(O)cc(-c3ncc4c(N5CC6CCC(C5)N6)nc(OCCN5CCC(CC6CCN(c7cccc8c7CN(C7CCC(=O)NC7=O)C8=O)CC6)CC5)nc4c3F)c12` (stereo not drawn) [Compound 35, 3-[4-[4-[[1-[2-[4-(3,8-diazabicyclo[3.2.1]octan-3-yl)-7-(8-ethynyl-7-fluoro-3-hydroxy-1-naphthyl)-8-fluoro-pyrido[4,3-d]pyrimidin-2-yl]oxyethyl]-4-piperidyl]methyl]-1-piperidyl]-1-oxo-isoindolin-2-yl]piperidine-2,6-dione]: the greatest degradation seen (Dmax) is over 70% and the DC50 lay within 100 to 5250 nM.

`CCc1cccc2cc(O)cc(-c3ncc4c(N5CC6CCC(C5)N6)nc(OCCN5CCN(c6ccc(C(=O)NC7CCC(=O)NC7=O)c(F)c6)CC5)nc4c3F)c12` (stereo not drawn) [Compound 37]: the 50% degradation concentration (DC50) is over 1000 nM. Take `CCc1cccc2cc(O)cc(-c3ncc4c(N5CC6CCC(C5)N6)nc(OCCN5CCC(c6ccc7c(c6)CN(C6CCC(=O)NC6=O)C7=O)CC5)nc4c3F)c12` (stereo not drawn) [Compound 38]: the half-maximal degradation concentration (DC50) was in the range of 100 to 5250 nM. In turn, `CCc1cccc2cc(O)cc(-c3ncc4c(N5CC6CCC(C5)N6)nc(OCCN5CCN(c6ccc7c(c6)CN(C6CCC(=O)NC6=O)C7=O)CC5)nc4c3F)c12` (stereo not drawn) [Compound 39] had a maximal degradation (Dmax) of at most 25% and a DC50 of 250 to 1000 nM. For `CCc1cccc2cc(O)cc(-c3ncc4c(N5CC6CCC(C5)N6)nc(OCCN5CCN(c6ccc7c(c6)C(=O)N(C6CCC(=O)NC6=O)C7=O)CC5)nc4c3F)c12` (stereo not drawn) [Compound 40], in that order: at most 25% and over 1000 nM. The compound `CCc1cccc2cc(O)cc(-c3ncc4c(N5CC6CCC(C5)N6C)nc(OCCN5CCC(CC6CCN(CC7CCN(c8cccc9c8CN(C8CCC(=O)NC8=O)C9=O)CC7)CC6)CC5)nc4c3F)c12` (stereo not drawn) [Compound 42, 3-[4-[4-[[4-[[1-[2-[7-(8-ethyl-3-hydroxy-1-naphthyl)-8-fluoro-4-(8-methyl-3,8-diazabicyclo[3.2.1]octan-3-yl)pyrido[4,3-d]pyrimidin-2-yl]oxyethyl]-4-piperidyl]methyl]-1-piperidyl]methyl]-1-piperidyl]-1-oxo-isoindolin-2-yl] piperidine-2,6-dione] had a 50% degradation concentration (DC50) of over 1000 nM. Turning to `C#Cc1c(F)ccc2cc(O)cc(-c3ncc4c(N5CC6CCC(C5)N6)nc(OCCN5CCC(CC6CCN(CC7CCN(c8cccc9c8CN(C8CCC(=O)NC8=O)C9=O)CC7)CC6)CC5)nc4c3F)c12` (stereo not drawn) [Compound 43, 3-[4-[4-[[4-[[1-[2-[4-(3,8-diazabicyclo[3.2.1]octan-3-yl)-7-(8-ethynyl-7-fluoro-3-hydroxy-1-naphthyl)-8-fluoro-pyrido[4,3-d]pyrimidin-2-yl]oxyethyl]-4-piperidyl]methyl]-1-piperidyl]methyl]-1-piperidyl]-1-oxo-isoindolin-2-yl] piperidine-2,6-dione], the greatest degradation seen (Dmax) was over 70% and the DC50 was under 5100 nM. On to `CCc1cccc2cc(O)cc(-c3nc(N4CC5CCC(C4)N5)c4cnc(OCCN5CCC(CC6CCN(CC7CCN(c8cccc9c8CN(C8(C)CCC(=O)NC8=O)C9=O)CC7)CC6)CC5)nc4c3F)c12` (stereo not drawn) [Compound 44], for which the DC50 was over 1000 nM. Same read-out and setting: for `CCc1cccc2cc(O)cc(-c3ncc4c(N5CC6CCC(C5)N6)nc(OCCN5CCC(CC6CCN(c7cccc8c7CN(C7CCC(=O)N(C)C7=O)C8=O)CC6)CC5)nc4c3F)c12` (stereo not drawn) [Compound 45] the value was 250 to 1000 nM.

The compound `CCc1cccc2cc(O)cc(-c3ncc4c(N5CC6CCC(C5)N6)nc(OCCN5CCC(CC6CCN(CC7CCN(c8cccc9c8CN(C8CCC(=O)N(C)C8=O)C9=O)CC7)CC6)CC5)nc4c3F)c12` (stereo not drawn) [Compound 46] displayed a 50% degradation concentration (DC50) of over 1000 nM. Turning to `CCc1cccc2cc(O)cc(-c3ncc4c(N5CC6CCC(C5)N6C)nc(OC[C@@]56CCCN5[C@H](COC(=O)N5CCN(c7ccc8c(c7)CN(C7CCC(=O)NC7=O)C8=O)CC5)CC6)nc4c3F)c12` (stereo partly drawn) [Compound 47, [(3S,8S)-8-[[7-(8-ethyl-3-hydroxy-1-naphthyl)-8-fluoro-4-(8-methyl-3,8-diazabicyclo[3.2.1]octan-3-yl)pyrido[4,3-d]pyrimidin-2-yl]oxymethyl]-1,2,3,5,6,7-hexahydropyrrolizin-3-yl]methyl4-[2-(2,6-dioxo-3-piperidyl)-1-oxo-isoindolin-5-yl]piperazine-1-carboxylate], the Dmax is at most 25% and the half-maximal degradation concentration (DC50) was 250 to 1000 nM. `CCc1cccc2cc(O)cc(-c3ncc4c(N5CC6CCC(C5)N6C)nc(OC[C@]56CCCN5[C@@H](COC(=O)N5CCN(c7ccc8c(c7)CN(C7CCC(=O)NC7=O)C8=O)CC5)CC6)nc4c3F)c12` (stereo partly drawn) [Compound 48, [(3R,8R)-8-[[7-(8-ethyl-3-hydroxy-1-naphthyl)-8-fluoro-4-(8-methyl-3,8-diazabicyclo[3.2.1]octan-3-yl)pyrido[4,3-d]pyrimidin-2-yl]oxymethyl]-1,2,3,5,6,7-hexahydropyrrolizin-3-yl]methyl4-[2-(2,6-dioxo-3-piperidyl)-1-oxo-isoindolin-5-yl]piperazine-1-carboxylate] returned a DC50 of over 1000 nM. On the same count and under the same terms, the same measure for `CCc1cccc2cc(O)cc(-c3ncc4c(N5CC6CCC(C5)N6C)nc(OC[C@@]56CCCN5[C@H](COC(=O)N5CCN(c7cccc8c7CN(C7CCC(=O)NC7=O)C8=O)CC5)CC6)nc4c3F)c12` (stereo partly drawn) [Compound 49, [(3S,8S)-8-[[7-(8-ethyl-3-hydroxy-1-naphthyl)-8-fluoro-4-(8-methyl-3,8-diazabicyclo[3.2.1]octan-3-yl)pyrido[4,3-d]pyrimidin-2-yl]oxymethyl]-1,2,3,5,6,7-hexahydropyrrolizin-3-yl]methyl 4-[2-(2,6-dioxo-3-piperidyl)-1-oxo-isoindolin-4-yl]piperazine-1-carboxylate]: over 1000 nM.

The compound `CCc1cccc2cc(O)cc(-c3ncc4c(N5CC6CCC(C5)N6)nc(OC[C@@]56CCCN5[C@H](COC(=O)N5CCN(c7ccc8c(c7)CN(C7CCC(=O)N(C)C7=O)C8=O)CC5)CC6)nc4c3F)c12` (stereo partly drawn) [Compound 50, [(3S,8S)-8-[[4-(3,8-diazabicyclo[3.2.1]octan-3-yl)-7-(8-ethyl-3-hydroxy-1-naphthyl)-8-fluoro-pyrido[4,3-d]pyrimidin-2-yl]oxymethyl]-1,2,3,5,6,7-hexahydropyrrolizin-3-yl]methyl4-[2-(1-methyl-2,6-dioxo-3-piperidyl)-1-oxo-isoindolin-5-yl]piperazine-1-carboxylate] registered a maximal degradation (Dmax) of at most 25% and a DC50 of under 5100 nM. Take `CCc1cccc2cc(O)cc(-c3ncc4c(N5CC6CCC(C5)N6C)nc(OC[C@]56CCCN5[C@@H](COC(=O)N5CCN(c7cccc8c7CN(C7CCC(=O)NC7=O)C8=O)CC5)CC6)nc4c3F)c12` (stereo partly drawn) [Compound 51, [(3R,8R)-8-[[7-(8-ethyl-3-hydroxy-1-naphthyl)-8-fluoro-4-(8-methyl-3,8-diazabicyclo[3.2.1]octan-3-yl)pyrido[4,3-d]pyrimidin-2-yl]oxymethyl]-1,2,3,5,6,7-hexahydropyrrolizin-3-yl]methyl4-[2-(2,6-dioxo-3-piperidyl)-1-oxo-isoindolin-4-yl]piperazine-1-carboxylate]: the half-maximal degradation concentration (DC50) was over 1000 nM.
